Tested on: moderate-to-severe chronic spontaneous urticaria (CSU)
Experiment: Phase 2 CSU study: urticaria activity score over 7 days (UAS7)
Assay type: in vivo, human
Design: key to UAS7 Median / UAS7 Change from baseline Median / UAS7 change from baseline, Q1 / UAS7 change from baseline, Q3 / UAS7 change from baseline, Max / UAS7 Change from baseline LS Mean (SE): UAS7 points; daily UAS score ranges 0–6 points/day, over 7 days
Text: The study comprises a 12 week, randomized, double-blind, placebo-controlled, multi-center, dose-ranging efficacy and safety phase, followed by a 40 week open label extension (OLE) phase (see FIG. 1). The study consists of three phases and an optional OLE phase. […] Clinically, CSU is characterized by the spontaneous and recurrent appearance of pruritic hives. The proposed primary endpoints were the UAS7 at Week 12 in EU and EU reference countries and the ISS7 in the US. Regardless of where a participant was from, all assessments were the same. The UAS7 score is a composite score containing both the HSS7 and the ISS7. This allowed a global assessment of the two key components of urticaria: hives and itch. […] The UAS is a validated PRO measure. […] The daily UAS scores range from 0 to 6 point/day. […] Patients were to complete the UAS using the e-diary. […] The following secondary endpoints were to be analyzed using the same approach as for the primary endpoint: • Change from baseline in UAS7 at Week 4 • Change from baseline in UAS7 at Week 12 (for US and US reference countries) • Change from baseline in ISS7 at Week 12 (except US and US reference countries) • Change from baseline in HSS7 at Week 12 The following responder secondary endpoints were to be analyzed using the Cochran-Mantel-Haenszel test adjusted by region: • Proportion of participants with UAS7<6 at Week 12 • Proportion of participants with UAS7=0 at Week 12 Participants who received selected prohibited medications and/or rescue medications were to be considered as non-responders for time points after the medication usage. For other participants, all available data including those collected during the off-treatment period were to be used to determine the responder/non-responder status. Missing data were to be considered as non-responders.

[1] = Week 9, 400 mg QPM, Prior Omalizumab Use
[2] = Week 9, 400 mg QPM, omalizumab-naive participants
[3] = Week 9, 400 mg TID, ITT population
[4] = Week 9, 400 mg TID, Omalizumab-Naïve
[5] = Week 9, 400 mg TID, Prior Omalizumab Use
[6] = Week 9, 400 mg TID, omalizumab-naive participants
[7] = Week 10, 400 mg BID, ITT population
[8] = Week 10, 400 mg BID, Omalizumab-Naïve
[9] = Week 10, 400 mg BID, Prior Omalizumab Use
[10] = Week 10, 400 mg BID, omalizumab-naive participants
[11] = Week 10, 400 mg QPM, ITT population
[12] = Week 10, 400 mg QPM, Omalizumab-Naïve
[13] = Week 10, 400 mg QPM, Prior Omalizumab Use
[14] = Week 10, 400 mg QPM, omalizumab-naive participants

With CC(C)(C=C(C#N)C(=O)N1CCC[C@@H](n2nc(-c3ccc(Oc4ccccc4)cc3F)c3c(N)ncnc32)C1)N1CCN(C2COC2)CC1 [rilzabrutinib, (R)-2-[3-[4-amino-3-(2-fluoro-4-phenoxy-phenyl)pyrazolo[3,4-d]pyrimidin-1-yl]piperidine-1-carbonyl]-4-methyl-4-[4-(oxetan-3-yl)piperazin-1-yl]pent-2-enenitrile] the “UAS7 Change from baseline Mean (SD)” value [1] was −23.00 (NC), the “UAS7 Change from baseline Median” value [1] was −23.00 and the “UAS7 Mean (SD)” value [1] was 18.00 (NC). The “UAS7 Median” value [1] was 18.00, the “UAS7 Percent change from baseline Mean (SD)” value (shortened to “UAS7 Percent change … (SD)”) [1] was −56.10 (NC) % and the “UAS7 Percent change from baseline Median” value [1] was −56.10%. For the same compound, the “Non-responder, UAS7 reduction from baseline of 10 points or more” value (from here on “Non-responder, UAS7 reduction”) [2] was 20 (54.1) n (%), the “OR for rilzabrutinib vs. placebo, UAS7 reduction of 10 points or more” value [2] was 1.522 and the “RRD (%) for rilzabrutinib vs. placebo, UAS7 reduction of 10 points or more” value (“RRD (%) … UAS7 reduction of 10 points or more” below) [2] was 9.7 %. For the same compound, the “Responder, UAS7 reduction from baseline of 10 points or more” value [2] was 17 (45.9) n (%), the “Non-responder, UAS7 reduction” value [3] was 13 (31.7) n (%) and the “OR for rilzabrutinib vs. placebo, UAS7 reduction of 10 points or more” value [3] was 3.243. For the same compound, the “RRD (%) … UAS7 reduction of 10 points or more” value [3] was 26.2 %, the “Responder, UAS7 reduction from baseline of 10 points or more” value [3] was 28 (68.3) n (%) and the “UAS7 Change from baseline Mean (SD)” value [4] was −17.88 (11.04). The “UAS7 Change from baseline Median” value [4] was −17.00, the “UAS7 Mean (SD)” value [4] was 12.57 (9.72) and the “UAS7 Percent change … (SD)” value [4] was −57.42 (32.58) %. The “UAS7 Percent change from baseline Median” value [4] was −60.00%, the “UAS7 Change from baseline Median” value [5] was −24.92 and the “UAS7 Median” value [5] was 4.00. For the same compound, the “UAS7 Percent change … (SD)” value [5] was −77.44 (25.29) %, the “UAS7 Percent change from baseline Median” value [5] was −85.78% and the “Non-responder, UAS7 reduction” value [6] was 12 (34.3) n (%). The “OR for rilzabrutinib vs. placebo, UAS7 reduction of 10 points or more” value [6] was 3.460, the “RRD (%) … UAS7 reduction of 10 points or more” value [6] was 29.2 % and the “Responder, UAS7 reduction from baseline of 10 points or more” value [6] was 23 (65.7) n (%). The “Non-responder, UAS7 reduction” value [7] was 20 (48.8) n (%), the “RRD (%) … UAS7 reduction of 10 points or more” value [7] was 2.8 % and the “Responder, UAS7 reduction from baseline of 10 points or more” value [7] was 21 (51.2) n (%). The “UAS7 Change from baseline Mean (SD)” value [8] was −14.01 (11.59), the “UAS7 Change from baseline Median” value [8] was −14.50 and the “UAS7 Mean (SD)” value [8] was 15.22 (14.36). The “UAS7 Median” value [8] was 13.50, the “UAS7 Percent change … (SD)” value [8] was −50.88 (41.19) % and the “UAS7 Percent change from baseline Median” value [8] was −51.79%. The “UAS7 Change from baseline Mean (SD)” value [9] was −19.40 (18.66), the “UAS7 Change from baseline Median” value [9] was −23.00 and the “UAS7 Mean (SD)” value [9] was 12.60 (14.98). The “UAS7 Median” value [9] was 4.00, the “UAS7 Percent change … (SD)” value [9] was −55.61 (51.03) % and the “UAS7 Percent change from baseline Median” value [9] was −85.19%. The “Non-responder, UAS7 reduction” value [10] was 17 (48.6) n (%), the “OR for rilzabrutinib vs. placebo, UAS7 reduction of 10 points or more” value [10] was 1.312 and the “RRD (%) … UAS7 reduction of 10 points or more” value [10] was 7.2 %. For the same compound, the “Responder, UAS7 reduction from baseline of 10 points or more” value [10] was 18 (51.4) n (%), the “Non-responder, UAS7 reduction” value [11] was 19 (50.0) n (%) and the “OR for rilzabrutinib vs. placebo, UAS7 reduction of 10 points or more” value [11] was 1.159. The “RRD (%) … UAS7 reduction of 10 points or more” value [11] was 3.5 %, the “Responder, UAS7 reduction from baseline of 10 points or more” value [11] was 19 (50.0) n (%) and the “UAS7 Change from baseline Mean (SD)” value [12] was −11.73 (10.20). The “UAS7 Change from baseline Median” value [12] was −10.00, the “UAS7 Mean (SD)” value [12] was 20.27 (10.69) and the “UAS7 Median” value [12] was 17.00. The “UAS7 Percent change … (SD)” value [12] was −36.15 (29.79) %, the “UAS7 Percent change from baseline Median” value [12] was −36.70% and the “UAS7 Change from baseline Mean (SD)” value [13] was −25.00 (NC). The “UAS7 Change from baseline Median” value [13] was −25.00, the “UAS7 Mean (SD)” value [13] was 16.00 (NC) and the “UAS7 Median” value [13] was 16.00. The “UAS7 Percent change … (SD)” value [13] was −60.98 (NC) %, the “UAS7 Percent change from baseline Median” value [13] was −60.98% and the “Non-responder, UAS7 reduction” value [14] was 19 (51.4) n (%). The “OR for rilzabrutinib vs. placebo, UAS7 reduction of 10 points or more” value [14] was 1.190, the “RRD (%) … UAS7 reduction of 10 points or more” value [14] was 4.1 % and the “Responder, UAS7 reduction from baseline of 10 points or more” value [14] was 18 (48.6) n (%).

— patent US20260256792A1, “TREATMENT OF CHRONIC SPONTANEOUS URTICARIA BY ADMINISTERING (R)-2-[3-[4-AMINO-3-(2-FLUORO-4-PHENOXY-PHENYL)PYRAZOLO[3,4-D]PYRIMIDIN-1-YL]PIPERIDINE-1-CARBONYL]-4-METHYL-4-[4-(OXETAN-3-YL)PIPERAZIN-1-YL]PENT-2-ENENITRILE” (priority 2023, published 2026)
